Assay results from US7897789B2, “Vitamin D receptor modulators” (Eli Lilly and Company, priority 2003, dated 2011).
Several values for one entry are separate records, joined by “and”; a condition that tells them apart may be missing. Equal entries are not always repeated. Where two headings read alike, the source gives them in different places.

What was measured:
[1] = target: T1, RXR-VDR heterodimer (Homo sapiens, UniProt P11473); assay: RXR-VDR heterodimerization assay (SaOS-2 cells); assay type: cell-based; details: Gal4-RXR / VP16-VDR-LBD luciferase reporter, Table 1
T1 construct: Add the Gal4-RXR-DEF and VP16-VDR-LBD; expressed in transfected cells; host or cells: SaOS-2 cells
T1 sequence (P11473 127-423 limits assumed): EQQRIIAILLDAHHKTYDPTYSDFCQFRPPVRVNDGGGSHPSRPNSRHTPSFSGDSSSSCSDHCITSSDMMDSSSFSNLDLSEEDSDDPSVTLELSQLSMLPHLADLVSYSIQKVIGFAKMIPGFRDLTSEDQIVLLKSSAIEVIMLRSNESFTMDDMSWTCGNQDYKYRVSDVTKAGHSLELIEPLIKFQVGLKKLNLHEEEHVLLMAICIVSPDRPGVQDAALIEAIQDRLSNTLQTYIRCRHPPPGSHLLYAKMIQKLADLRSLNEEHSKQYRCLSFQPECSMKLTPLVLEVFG
T1 sequence (P19793 201-462 partner limits assumed): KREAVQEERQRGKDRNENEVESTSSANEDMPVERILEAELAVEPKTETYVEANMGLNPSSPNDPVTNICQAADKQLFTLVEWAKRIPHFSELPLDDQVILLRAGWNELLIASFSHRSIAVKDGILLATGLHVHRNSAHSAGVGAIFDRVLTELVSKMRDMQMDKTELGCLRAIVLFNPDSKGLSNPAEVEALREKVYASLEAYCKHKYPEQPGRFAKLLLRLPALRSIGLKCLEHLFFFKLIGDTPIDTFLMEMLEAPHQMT
Procedure: 1. The RXR-VDR HeterodimerAssay:
This assay provides the VDR activity of a test compound.
(1) Materials and Method for RXR-VDR Heterodimerization Assay:
Luciferase Assay Reagent: • Use Steady-Glo Luciferase Reagent from Promega (Cat #E2550) Consists of: a. E2533 Assay Substrate, lyopholized product and b. E2543 Assay Buffer. • Thaw at room temperature • Store Cell Harvesting Aspirate media from culture flask, rinse cells with HBSS and aspirate. Add trypsin and incubate. When cells appear detached, resuspend cells in growth media. Transfer into a new flask with fresh growth media for passaging the cells. Plate well plates and two extra plates A. Cell Count Mix the cell suspension using pipette Use Hematocytometer to count the cells Load cell suspension onto the hemocytometer chamber Count cells. […] In sterile flask add cell suspension to plating media. Mix. Add cells/well. Place the cells in the incubator. Cells should be about 75% confluent prior to transfection. DAY 2: Transfection Step 1: DNA and Media Add plain DMEM media to tubes for mixing the DNA Add the Reporter gene pFR-LUC Add the Gal4-RXR-DEF and VP16-VDR-LBD Step 2: FuGENE and Media Prepare plain DMEM media in a ubes for mixing FuGENE Add FuGENE 6 Transfection Reagent Incubate Step 3: FuGENE, DNA and Media Complex Add FuGENE Media complex from step 2 to DNA Media complex from step 1 Incubate Step 4: FuGENE, DNA and Media Complex to-well plate Add FuGENE-DNA-Media complex from step 3 to each plate Incubate. […] Day 4: Luciferase Assay Read the plates after drug treatment Remove part of media from all the wells and leave remainder Add Steady-Glo Luciferase Reagent mixture/wells Incubate Count each well using a Luminescence counter, Top Count NXT by Packard
Set a delay between plates to reduce the background.

[2] = system: rat osteocalcin promoter; assay: OCN (osteocalcin) promoter assay; assay type: cell-based; details: RG-15 (ROS 17/2.8) cells, 48 hr treatment, Table 1
Procedure: 3. The OCN (Osteocalcin) Promoter Assay
The OCN Promoter Assay is an indicator and marker for osteoporosis. […] Preferred assay results are less than 50 nM.
(3) Materials and Method for the OCN Promoter Assay:
The activation of osteocalcin by VDR ligands was evaluated in a rat osteoblast-like cell line RG-15 (ROS 17/2.8) stably expressing rat osteocalcin promoter fused with luciferase reporter gene. […] Confluent RG-15 cells maintained in DMEM/F-12 medium (3:1) containing 5% FBS, 300 μg/ml G418 and at 37° C. under 5% CO2/95% air atmosphere were trypsinized (0.25% trypsin) and plated into white opaque 96-well cell culture plates (25000 cells/well). After 24 hr, cells (in DMEM/F-12 medium+2% FBS) were treated with various concentrations of compounds, dissolved in DMSO. The final DMSO concentration remained at 0.01% (v/v). After 48 hr treatment, the medium was removed, cells were lysed with 50 μl of lysis buffer (From Luciferase reporter assay system, Roche Diagnostics, Indianapolis, Ind.) and assayed for luciferase activity using the Luciferase Reporter Gene Assay kit from Boehringer Mannheim as per manufacturer's specifications.

[3] = system: KERtr cells; assay: Keratinocyte proliferation assay; assay type: cell-based; details: Homo sapiens
Procedure: 5. The Keratinocyte Proliferation Assay
This Assay is indicative for the treatment of psoriasis.
(5) The Keratinocyte Proliferation Assay:
KERtr cells (Human skin keratinocyte transformed with a retrovirus vector, obtained from ATCC) were plated in 96-well flat-bottomed plates (3000 cells/well) in 100 μl keratinocyte serum free medium supplemented with bovine pituitary extract in the absence of EGF (Life Technologies, Rockville, Md.) and incubated at 37° C. for two days. The cells were treated with various concentrations of VDR ligands (ten-fold serial dilution from 10,000 nM to 0.1 nM in triplicate), dissolved in 100 μl keratinocyte serum free medium supplemented with bovine pituitary extract in the absence of EGF and incubated at 37° C. for 72 hr. […] Potency values (IC50) values were determined as the concentration (nM) of compound that elicited a half-maximal response.

[4] = system: DBF mice; assay: Mouse hypercalcemia assay; details: oral gavage for 6 days, serum ionized calcium 6 hours after last dosing; Table 1
Text: The Mouse Hypercalcemia Assay
The Mouse Hypercalcemia Assay is a six day hypercalcemia test for toxicity and selectivity.
(4) Materials and Method for the Mouse Hypercalcemia Assay:
Weanling, virus-antibody-free, five to six weeks old female DBF mice (Harlan, Indianapolis, Ind.) are used for all the studies. Animals are allowed to acclimate to local vivarium conditions for 2 days. […] The animals then are divided into groups with 4-5 mice per group. Different doses of test compounds prepared in 10% Ethanol and 90% sesame oil are administered to mice orally via gavage for 6 days. 1α-25(OH)2D3 0.5 μg/kg/d was also given to one group of mice as the positive control. […] Raw data of group differences is assessed by analysis of variance (ANOVA) using Fisher's protected least significant difference (PLSD) where the significance level was P<0.05.

[5] = target: T2, VDR (Homo sapiens, UniProt P11473); assay: Caco-2 cell co-transfection assay (VDR CTF); assay type: cell-based; details: Caco-2 cells, pGal4-VDR-LBD luciferase co-transfection; Table 1
T2 construct: the receptor expression vector pGal4-VDR-LBD (10 ng); expressed in transfected cells; host or cells: Caco-2 cells
T2 sequence (P11473 127-423 limits assumed): T1 sequence (P11473 127-423 limits assumed)
Procedure: 2. The Caco-2 Cell Co-Transfection Assay:
The Caco-2 cell assay is an indicator for the undesirable condition of hypercalcemia. This co-transfection assay is a surrogate assay for in vivo calcemic activity of VDR ligands. […] Preferred assay results are greater than 1000 nM.
(2) Materials and Method for The Caco-2 Cell Assay:
Caco-2 cells, grown in phenol red free, DMEM (Invitrogen, Carlsbad, Calif.) containing 10% charcoal-stripped FCS (Hyclone, Logan, Utah), were transfected with Fugene 6 reagent (Roche Diagnostics, Indianapolis, Ind.). Cells (5000/well) were plated 18 h before transfection in a 96 well plate. The Cells were transfected with Gal4-responsive reporter pFRLuc (150 ng, Stratagene, La Jolla Calif.) and the receptor expression vector pGal4-VDR-LBD (10 ng), along with Fugene 6 reagent (0.2 μl/well). The DNA-Fugene complex was formed by incubating the mixture for 30 min at room temperature. The cells were transfected in triplicate for 5 h, and treated with various concentrations of VDR ligands (form 0.01 nM to 10,000 nM concentration range) 18 h post-transfection. The luciferase activity was quantified using Steady-Glo reagent kit (Promega, Madison, Wis.) as per manufacturer's specifications.

[6] = system: IL-10; assay: Human IL-10 induction assay in PBMCs; assay type: cell-based; details: PBMC
Text: 6. The IL-10 Induction Assay
This is an in vitro efficacy assay for psoriasis, abscess and adhesion. Psoriasis involves both keratinocytes and immune cells. IL-10 is a unique cytokine because it is anti-inflammatory and immunosuppressive. This assay tells us whether a VDRM is able to function as an agonist in PBMCs ([…]) or not.
(6) Materials and Method for Human IL-10 Induction Assay:
Isolation of Peripheral Blood Mononuclear Cells (PBMCs):
Stimulation of PBMC: • L. Prepare TPA in DMSO. • M. Dissolve PHA in water. • N. Plate TPA/PHA treated PBMCs in well plates. • O. Incubate.
Sample Collection and Assay: • S. Remove all the cells by centrifugation and assay the supernatant for IL-10 by immunoassay. • T. Perform IL-10 assay using anti-human IL-10 antibody coated beads, as described by the manufacturer (Linco Research Inc., St. Charles, Mo.). (8) CaT1 Assay

[7] = 72 h, BrdU incorporation, Table 2, read-out: Kera. Prolif. IC50
[8] = TPA/PHA treated human PBMCs, Table 2

Compound: CCC(CC)(c1ccc(OCC(=O)C(C)(C)C)c(C)c1)c1cc2cc(C(=O)O)ccc2s1 [Ex 17, 2-{1-[4-(3,3-dimethyl-2-oxo-butoxy)-3-methyl-phenyl]-1-ethyl-propyl}-benzo[b]thiophene-5-carboxylic acid]
- EC50 [1]: 272 nM and 51 nM
- EC50 [2]: 3 nM
- EC50 ([2]; Rattus norvegicus, 48 h): 4 nM
- IC50 [3, 7]: 404 nM
- Mouse Hypercal [4]: >300 µg/kg/day
- EC50 [5]: 631 nM

Compound: CCC(CC)(c1ccc(OCC(O)C(C)(C)C)c(C)c1)c1cc2cc(C(=O)O)ccc2s1 (stereo not shown) [Ex 18, 2-{1-ethyl-1-[4-(2-hydroxy-3,3-dimethyl-butoxy)-3-methyl-phenyl]-propyl}-benzo[b]thiophene-5-carboxylic acid]
- EC50 [2]: 1.3 nM
- EC50 ([2]; Rattus norvegicus, 48 h): 2.4 nM
- IC50 [6, 8]: 89 nM
- IC50 [3, 7]: 1.8 nM
- EC50 [5]: 748 nM

Compound: CCC(CC)(c1ccc(OCC(O)C(C)(C)C)c(C)c1)c1cc2cc(C(=O)NCC(=O)O)ccc2s1 (stereo not shown) [Ex 20, [(2-{1-Ethyl-1-[4-(2-hydroxy-3,3-dimethyl-butoxy)-3-methyl-phenyl]-propyl}-benzo[b]thiophene-5-carbonyl)-amino]-acetic acid]
- EC50 [1]: 24 nM
- EC50 ([2]; Rattus norvegicus, 48 h): 5 nM
- IC50 [6, 8]: 386 nM
- IC50 [3, 7]: 98 nM
- EC50 [5]: 314 nM

Compound: CCC(CC)(c1ccc(OCC(=O)C(C)(C)C)c(C)c1)c1cc2cc(C(=O)N(C)C)ccc2s1 [Ex 21, 2-{1-[4-(3,3-Dimethyl-2-oxo-butoxy)-3-methyl-phenyl]-1-ethyl-propyl}-benzo[b]thiophene-5-carboxylic acid dimethylamide]
- EC50 [1]: 134 nM and 24 nM
- EC50 [2]: 48 nM
- EC50 ([2]; Rattus norvegicus, 48 h): 29 nM
- IC50 [3, 7]: 162 nM
- Mouse Hypercal [4]: >1000 µg/kg/day
- EC50 [5]: 708 nM

Compound: CCC(CC)(c1ccc(OCC(=O)C(C)(C)C)c(C)c1)c1ccc2cc(C(=O)O)sc2c1 [Ex. 1, 6-{1-[4-(3,3-dimethyl-2-oxo-butoxy)-3-methyl-phenyl]-1-ethyl-propyl}-benzo[b]thiophene-2-carboxylic acid]
- EC50 [2]: 1 nM
- EC50 ([2]; Rattus norvegicus, 48 h): 2 nM
- IC50 [6, 8]: 109 nM
- Mouse Hypercal [4]: <300 µg/kg/day
- EC50 [5]: 432 nM

Compound: CCC(CC)(c1ccc(OCC(O)C(C)(C)C)c(C)c1)c1ccc2cc(C(=O)O)sc2c1 (stereo not shown) [Ex. 2, 6-{1-ethyl-1-[4-(2-hydroxy-3,3-dimethyl-butoxy)-3-methyl-phenyl]-propyl}-benzo[b]thiophene-2-carboxylic acid]
- EC50 [1]: 30 nM
- EC50 ([2]; Rattus norvegicus, 48 h): 1 nM
- IC50 [6, 8]: 24 nM
- IC50 [3, 7]: 1 nM
- EC50 [5]: 411 nM

Compound: CCC(CC)(c1ccc(OCC(=O)C(C)(C)C)c(C)c1)c1ccc2cc(C(=O)N(C)C)sc2c1 [Ex. 3, 6-{1-[4-(3,3-Dimethyl-2-oxo-butoxy)-3-methyl-phenyl]-1-ethyl-propyl}-benzo[b]thiophene-2-carboxylic acid dimethylamide]
- EC50 [1]: 442 nM and 67 nM
- IC50 [6, 8]: 351 nM
- IC50 [3, 7]: > 1000 nM
- EC50 [5]: 869 nM

Compound: CCC(CC)(c1ccc(OCC(=O)C(C)(C)C)c(C)c1)c1ccc2cc(C(=O)NCC(=O)O)sc2c1 [Ex. 5, [(6-{1-[4-(3,3-dimethyl-2-oxo-butoxy)-3-methyl-phenyl]-1-ethyl-propyl}-benzo[b]thiophene-2-carbonyl)-amino]-acetic acid]
- EC50 ([2]; Rattus norvegicus, 48 h): 1 nM
- IC50 [6, 8]: 6 nM
- IC50 [3, 7]: 4 nM
- Mouse Hypercal [4]: >300 µg/kg/day
- EC50 [5]: 342 nM

Compound: CCC(CC)(c1ccc(OCC(O)C(C)(C)C)c(C)c1)c1ccc2cc(C(=O)NCC(=O)O)sc2c1 (stereo not shown) [Ex. 6, [(6-{1-ethyl-1-[4-(2-hydroxy-3,3-dimethyl-butoxy)-3-methyl-phenyl]-propyl}-benzo[b]thiophene-2-carbonyl)-amino]-acetic acid]
- IC50 [6, 8]: 4 nM
- IC50 [3, 7]: 4 nM
- EC50 [5]: 331 nM

Compound: CCC(CC)(c1ccc(OCC(O)C(C)(C)C)c(C)c1)c1cc2ccc(C(=O)O)cc2s1 (stereo not shown) [Ex. 8, 2-{1-Ethyl-1-[4-(2-hydroxy-3,3-dimethyl-butoxy)-3-methyl-phenyl]-propyl}-benzo[b]thiophene-6-carboxylic acid]
- IC50 [6, 8]: 15 nM
- IC50 [3, 7]: 1 nM
- EC50 [5]: 409 nM

Compound: C=C1/C(=C\C=C2/CCC[C@]3(C)[C@@H]([C@H](C)/C=C/[C@@H](O)C4CC4)CC[C@@H]23)C[C@@H](O)C[C@@H]1O [FF, calcipotriol, reference compound]
- IC50 ([6]; human PBMCs, comparison compounds, Table 4): 0.5 nM
- IC50 ([3]; comparison compounds, Table 4, read-out: Kera. Prolif. IC50): 103 nM
